Experiments:
Assay type in all cases: cell-based
[1] = tested on: Proteus vulgaris; experiment: Minimum inhibitory concentration against bacteria, strain A; details: 24 hours at 30° C.; tested at 100 and 300 mg/liter
Method: (§1) Overnight cultures, grown in Caso peptone bouillon (Merck) of the various strains of bacteria: (A) Proteus vulgaris, (B) Pseudomonas aeruginosa, (C) Enterobacter aerogenes, (D) Serratia marcencens, (E) Alcaligenes denitrificans and (F) Bacillus subtilis are each diluted in a ratio of 1/1000 in saline solution. Sufficient of the suspensions is put into Caso peptone bouillon to dilute the bacteria again in the ratio of 1/1000. Each of the compounds listed in Table 1 is then added in amounts of 100 and 300 mg/liter. After being incubated for 24 hours at 30° C. in a shaking waterbath, the turbidity of the samples is evaluated.

[2] = tested on: Pseudomonas aeruginosa; experiment: Minimum inhibitory concentration against bacteria, strain B; details: 24 hours at 30° C.; tested at 100 and 300 mg/liter
Method: as §1

[3] = tested on: Enterobacter aerogenes; experiment: Minimum inhibitory concentration against bacteria, strain C; details: 24 hours at 30° C.; tested at 100 and 300 mg/liter
Method: as §1

[4] = tested on: Serratia marcencens; experiment: Minimum inhibitory concentration against bacteria, strain D; details: 24 hours at 30° C.; tested at 100 and 300 mg/liter
Method: as §1

[5] = tested on: Alcaligenes denitrificans; experiment: Minimum inhibitory concentration against bacteria, strain E; details: 24 hours at 30° C.; tested at 100 and 300 mg/liter
Method: as §1

[6] = tested on: Bacillus subtilis; experiment: Minimum inhibitory concentration against bacteria, strain F; details: 24 hours at 30° C.; tested at 100 and 300 mg/liter
Method: as §1

[7] = tested on: Aspergillus niger; experiment: Minimum inhibitory concentration against fungi, agar incorporation test, strain K; details: malt extract/agar
Method: (§2) The invention is carried out using the known agar incorporation test in the following fungi:
(§3) in a malt extract/agar (Merck). Inhibition is effected by adding sufficient of each of the various compounds to give final concentrations in the agar of 2, 5, 10, 50 and 100 mg/liter. The concentrations (mg/liters) required to inhibit the growth of the fungi (starting from traces of fungi added dropwise) are illustrated in Table 3.

[8] = tested on: Aspergillus phoenicis; experiment: Minimum inhibitory concentration against fungi, agar incorporation test, strain L; details: malt extract/agar
Method: as §2
(L) Aspergillus phoenicis
as §3

[9] = tested on: Penicillium funiculosum; experiment: Minimum inhibitory concentration against fungi, agar incorporation test, strain M; details: malt extract/agar
Method: as §2
(M) Penicillium funiculosum
as §3

[10] = tested on: Alternaria alternata; experiment: Minimum inhibitory concentration against fungi, agar incorporation test, strain N; details: malt extract/agar
Method: as §2, §3

[11] = tested on: Cladosporium cladosporioides; experiment: Minimum inhibitory concentration against fungi, agar incorporation test, strain O; details: malt extract/agar
Method: as §2
(O) Cladosporium cladosporioides
as §3

[12] = tested on: Candida albicans; experiment: Minimum inhibitory concentration against fungi, agar incorporation test, strain P; details: malt extract/agar
Method: as §2, §3

[13] = tested on: Endomyces geotrichum; experiment: Minimum inhibitory concentration against fungi, agar incorporation test, strain Q; details: malt extract/agar
Method: as §2, §3

[14] = tested on: Aureobasidium pullulans; experiment: Minimum inhibitory concentration against fungi, agar incorporation test, strain R; details: malt extract/agar
Method: as §2
(R) Aureobasidium pullulans
as §3

[15] = tested on: Chaetomium globosum; experiment: Minimum inhibitory concentration against fungi, agar incorporation test, strain S; details: malt extract/agar
Method: as §2, §3

[16] = tested on: Chlorella vulgaris; experiment: Action against algae: Chlorella vulgaris; design: key: --: no growth on the agar, 3 ppm have destroyed the algae in 6 hours; details: 3 mg/liter; for Growth on the agar (algae-destroying action): 6 hours exposure, 14 days incubation; for Growth in the medium (growth inhibition): 14 days
Method: Cultures of Chlorella vulgaris which had been grown for 14 days in algae nutrient media are diluted in the ratio 1/200 in the algae nutrient medium. Each of the compounds listed in Table 1 is then added in such an amount as to give a final concentration of 3 mg/liter. After incubating for 6 hours, 10 μl of each culture are withdrawn and added dropwise to algae/agar in order to determine the destructive action. After the cultures have incubated for 14 days under illumination (14 hours of light and 10 hours of darkness, alternately), the growth in the algae medium (determination of growth inhibition) and on the algae/agar (determination of algae-destroying action) is assessed visually.

Substance	MIC against bacteria, strain A [1] [mg/L]	MIC against bacteria, strain B [2] [mg/L]	MIC against bacteria, strain C [3] [mg/L]	MIC against bacteria, strain D [4] [mg/L]	MIC against bacteria, strain E [5] [mg/L]	MIC against bacteria, strain F [6] [mg/L]	MIC against fungi, strain K [7] [mg/L]	MIC against fungi, strain L [8] [mg/L]	MIC against fungi, strain M [9] [mg/L]	MIC against fungi, strain N [10] [mg/L]	MIC against fungi, strain O [11] [mg/L]	MIC against fungi, strain P [12] [mg/L]	MIC against fungi, strain Q [13] [mg/L]	MIC against fungi, strain R [14] [mg/L]	MIC against fungi, strain S [15] [mg/L]	Growth on the agar (algae-destroying action) [16]	Growth in the medium (growth inhibition) [16]
(CH3)2 N(OH)C16 H37 / Tributyldichloro [Example 15]	100	100	> 300	> 300	300	100	2	2	5	2	2	5	10	2	2	--	--
C14 H29 (CH3)2NCH2CHOHCH2 OH / Tributyldichloro [Example 21]	100	100	100	100	100	100	≤ 5	≤ 5	≤ 5	≤ 5	≤ 5	≤ 5	≤ 5	≤ 5	≤ 5	--	--
